# Experimental data: patent US20170307610A1, “COMPOUNDS THAT BIND DYSTROGLYCAN AND USES THEREOF” (OREGON HEALTH & SCIENCE UNIVERSITY, priority 2014, published 2017)
# Legend:
# Type in all cases: cell-based, mouse
# [1] = system: E3D1 MECs; assay: Pulsed time course of Rhod-Ln internalization, flow cytometry
# Description: To explore the dynamics of laminin internalization, steady-state time course experiments (measuring internalization in the continuous presence of labeled laminin) and pulsed time course experiments were performed. In pulsed time course experiments, the cells were exposed to exogenous Rhod-Ln at 4° C. to prevent internalization, excess unbound Rhod-Ln was washed away, and then cells were returned to 37° C. to allow synchronized internalization and trafficking to proceed. […] Following pulsed and synchronized laminin exposure, Rhod-Ln was again observed to internalize within 1 hour, but reached a maximum at 8 hours, after which the levels of internal laminin declined (FIG. 4A). After 24 hours, internal Rhod-Ln levels declined to ˜37% of the maxima, indicating degradation (MFI: 315±3.5 to 119±11.5). To determine if laminin was degraded using classical degradation pathways, pulsed time course experiments in the presence of leupeptin (lysosome inhibitor) or […] (proteasome inhibitor) were performed.
# Laminin labeling—Laminin-111 (1 mg) (Sigma-Aldrich Corp., St. Louis, Mo., USA) was dialyzed twice overnight against 500 ml of PBS with 10 μM CaCl2. The dialyzed laminin was then reacted with 10 μg NHS-rhodamine, or a 50 fold molar excess of NHS409 CypHer5 (GE) for 2 hr on ice, followed by dialysis twice overnight against 500 ml of PBS with 10 μM CaCl2.
# Flow Cytometry—Cells were plated in 12 well plates at 200,000 cells/well. The following day, media was changed to serum-free media with or without 10 μg/ml rhodamine laminin or 40 μg/ml FITC-dextran (500S-Sigma-Aldrich Corp., St. Louis, Mo., USA). Unless otherwise indicated, cells were incubated 18-24 hrs, washed once with PBS, and cells trypsinized. Cells were washed in 5 ml cold PBS/1 mM EDTA, pelleted, and resuspended in 1 ml PBS/1 mM EDTA. Using a BD FACScan flow cytometer (BD Biosciences, San Jose, Calif., USA), 10,000 cells/well were counted, background fluorescence from the cell counts with no added laminin subtracted and the mean fluorescence intensity values reported. Graphed data are compiled from duplicate wells from each experiment with a minimum of three separate experiments, unless indicated otherwise.
# [2] = system: MEpG MECs (DG−/− or DG+); assay: Laminin internalization in dystroglycan-deleted or re-expressing cells, flow cytometry; details: n=6
# Source text: Genetic manipulation of laminin receptor expression was employed in order to identify the specific receptor(s) mediating laminin internalization. […] To test the role of DG in laminin internalization, an MEC cell line containing an engineered dystroglycan deletion (MEpG) was used (Weir M L et al, 2006 supra). The MEpG cell line was infected with retroviral empty vector (creating control DG−/− cells) or retrovirus expressing DG (creating DG+ cells). Immunoblotting confirmed the expected presence or absence of DG expression in these cell types (FIG. 11A). […] The compiled mean fluorescence intensity (MFI) data of cells expressing DG was nearly four-fold higher than cells lacking DG expression (DG+=18.04±4.6; DG−/−=4.84±1.43, n=6, FIG. 7C). Therefore, the majority of laminin internalization observed in functionally normal mammary epithelial cells appeared to depend on dystroglycan function.
# (§1) Cell culture—Primary mammary epithelial cells from control or ΔDGK14-Cre mid-pregnant mice were obtained as previously described (Weir et al, 2006 supra). DG-knockout (MEpG and MEpL cells), and WT E3D1 mammary epithelial cells were established as described previously (Weir et al, 2006 supra) from floxed-DG mice. β1 int-knockout (E3D1 cre19) MECs were established from floxed -β1 int primary MECS, as above. MECs were grown in DME/F12, 2% FBS, 10 μg/ml insulin and 5 ng/ml EGF (BD Biosciences, San Jose, Calif., USA). Human DG, β1 int, or wedge β1 int genes (Luo B H et al, Proc Natl Acad Sci USA 102, 3679-3684 (2005); incorporated by reference herein) were cloned into the retroviral expression vector, pBMN-IRES-PURO as described previously (Weir et al, 2006 supra) and verified by sequencing. […] These cultures produced >95% astrocytes as determined by staining with GFAP astrocyte marker antibody.
# (§2) Flow Cytometry—Cells were plated in 12 well plates at 200,000 cells/well. […] Using a BD FACScan flow cytometer (BD Biosciences, San Jose, Calif., USA), 10,000 cells/well were counted, background fluorescence from the cell counts with no added laminin subtracted and the mean fluorescence intensity values reported. […]
# [3] = system: E3D1cre19 MECs (β1 Int−/− or β1 Int+); assay: Laminin internalization in β1 integrin-deleted or re-expressing cells, flow cytometry
# Source text: The integrin family of ECM receptors is expressed in the DG−/− cell population (MepG-vec and MepL-vec cell lines, FIG. 11A), but are apparently unable to mediate significant laminin internalization alone (FIG. 7B). To directly test the role of integrins in laminin internalization, an MEC cell line containing an engineered β1 integrin (β1 int) deletion, E3D1cre19 (β1 Intl−/−) was used (cre19-vec, FIG. 11A, see Example 10 infra). These β1 int−/− cells were infected with the empty vector retrovirus or with a WT β1 int expressing retrovirus. The re-expression of WT β1 integrin in β1 int−/− cells produced a modest but statistically insignificant change ([…]) in laminin internalization (MFI β1 Intl−=21.4±3; β1 Int+=26.8±1.2; n=6, p=0.17) (FIG. 7D). […] Therefore, although the β1 integrins are not required for the majority laminin internalization, they can enhance it, possibly as co-receptors with DG (Leonoudakis D et al, 2010 supra; Weir M L et al, 2006 supra).
# as §1, with “USA).” for “USA). Human DG, β1 int, or wedge β1 int genes (Luo B H et al, Proc Natl Acad Sci USA 102, 3679-3684 (2005); incorporated by reference herein) were cloned into the retroviral expression vector, pBMN-IRES-PURO as described previously (Weir et al, 2006 supra) and verified by sequencing.”
# as §2
substance,measurement,setting,value
Rhod-Ln: laminin-111 labeled with NHS-rhodamine; dystroglycan binding reagent,time at which Rhod-Ln was observed to internalize,"[1]; pulsed and synchronized laminin exposure, 4° C. then 37° C.",≤ 1 h
same,time of maximum internal laminin,[1]; pulsed laminin exposure,8 h
same,MFI of internal Rhod-Ln after 24 hours,"[1]; pulsed, 24 hours",119±11.5
same,internal Rhod-Ln level relative to the maxima,"[1]; pulsed, after 24 hours",~37%
same,MFI of internal Rhod-Ln at the maximum,"[1]; pulsed, maximum (8 hours)",315±3.5
same,"MFI of internalized laminin, DG+ cells","[2]; cells expressing DG, 18 hours",18.04±4.6
same,"MFI of internalized laminin, DG−/− cells","[2]; cells lacking DG, 18 hours",4.84±1.43
same,more laminin internalized by DG+ MECs than DG−/− MECs,[2]; compiled MFI,380%
same,"MFI of internalized laminin, β1 Int+ cells","[3]; WT β1 integrin re-expressed, n=6",26.8±1.2
same,"MFI of internalized laminin, β1 Int−/− cells","[3]; empty vector, n=6",21.4±3
same,increase in laminin internalization on re-expression of WT β1 integrin,"[3]; statistically insignificant, p=0.17",20%
